Experimental data reported in US10966426B2, “Herbicidal compositions comprising phenylpyrimidines” (BASF SE, priority 2016, dated 2021).
Read-outs that look alike come from different tables or passages of the source.

Legend:
Assay type in all cases: in vivo
Galium aparine = assay: greenhouse pre-emergence treatment, GALAP; conditions: Galium aparine, 480 h, 20 DAT, GALAP
Summary of the method: (§1)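 Pre-emergence spray of compounds, alone or as combinations formulated as 10% emulsion concentrate in water, directly after sowing in loamy sand (~3.0% humus); pots hooded until rooting, kept at 10-25° C or 20-35° C per species for 2 to 4 weeks. Damage scored 0-100 (100 = no emergence/complete destruction); Colby expected value E=X+Y−(X·Y/100).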

Stellaria media = assay: greenhouse post-emergence treatment, STEME; conditions: Stellaria media
Summary of the method: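 Mixtures formulated as 10% by weight emulsion concentrates, applied in water post-emergence to plants of 3–15 cm. Cool-season species held at 10-25° C., warm-season at 20-35° C.; rating 0 (no damage) to 100 (destruction).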

Setaria viridis = assay: greenhouse pre-emergence treatment, SETVI; conditions: 20 DAT, SETVI
Summary of the method: as §1

Lolium multiflorum = assay: greenhouse pre-emergence treatment, LOLMU; conditions: Lolium multiflorum, 480 h, LOLMU, 20 DAT
Summary of the method: as §1

Poa annua = assay: greenhouse pre-emergence treatment, POAAN; conditions: 20 DAT
Summary of the method: as §1

Brachiaria decumbens = assay: greenhouse pre-emergence treatment, BRADC; conditions: Urochloa decumbens, 480 h, BRADC, 20 DAT
Summary of the method: as §1

Digitaria sanguinalis = assay: greenhouse pre-emergence treatment, DIGSA; conditions: Digitaria sanguinalis, 480 h, DIGSA, 20 DAT
Summary of the method: as §1

Polygonum aviculare = assay: greenhouse post-emergence treatment, POLAV; conditions: Polygonum aviculare, 480 h, 20 DAT
Method: The culture containers used were plastic pots containing loamy sand with approximately 3.0% of humus as substrate. The seeds of the test plants were sown separately for each species.
For the post-emergence treatment, the test plants were grown to a plant height of from 3 to 15 cm, depending on the plant habit, and only then treated with the active compounds which had been suspended or emulsified in water. To this end, the test plants were either sown directly, and grown in the same containers, or they were first grown separately as seedlings and transplanted into the test containers a few days prior to treatment.
Depending on the species, the plants were kept at 10-25° C. and 20-35° C., respectively.
The test period extended over 2 to 4 weeks. During this time, the plants were tended and their response to the individual treatments was evaluated.
Evaluation was carried out using a scale from 0 to 100. 100 means no emergence of the plants, or complete destruction of at least the above-ground parts, and 0 means no damage or normal course of growth. A good herbicidal activity is given at values of at least 70, and very good herbicidal activity is given at values of at least 85.
The respective stated components A and B, and if appropriate, C were formulated as a 10% by weight strength emulsion concentrate and, with addition of the amount of solvent system, introduced into the spray liquor used for applying the active compound. In the examples, the solvent used was water.
In the examples below, using the method of S. R. Colby (1967) “Calculating synergistic and antagonistic responses of herbicide combinations”, Weeds 15, p. 22ff., the value E, which is expected if the activity of the individual active compounds is only additive, was calculated. E=X+Y−(X·Y/100) where X=effect in percent using herbicide A at an application rate a; • Y=effect in percent using herbicide B at application rate b; • E=expected effect (in %) of herbicide A+herbicide B at application rates a+b.

Q: `Cc1ccccc1CO[C@@H]1C[C@@]2(C(C)C)CC[C@]1(C)O2` (racemic) [cinmethylin] was tested. Which % herbicidal activity (weed control, 0-100 scale) at 62.5 g/ha (Galium aparine; 62.5 gai/ha (EC 750 g/l), Table X1, read-out: % activity, solo application) did it give?
A: Its % herbicidal activity (weed control, 0-100 scale) at 62.5 g/ha is 0%.

Q: And the % herbicidal activity (weed control, 0-100 scale) at 125 g/ha (Galium aparine; 125 gai/ha (EC 750 g/l), Table X1, read-out: % activity, solo application)?
A: The % herbicidal activity (weed control, 0-100 scale) at 125 g/ha was 20%.

Q: And the pest or weed control at 62.5 g/ha (Stellaria media; 504 h, read-out: % activity)?
A: The pest or weed control at 62.5 g/ha was 0%.

Q: And the pest or weed control at 125 g/ha (Stellaria media; 504 h, read-out: % activity)?
A: Its pest or weed control at 125 g/ha is 10%.

Q: What about the inhibition at 31.25 g/ha (Setaria viridis; Setaria viridis, 480 h, 31.25 gai/ha (EC 750 g/l), Table X1, read-out: % activity, solo application) of the same compound?
A: The inhibition at 31.25 g/ha was 85%.

Q: Which pest or weed control at 250 g/ha (Lolium multiflorum; chlorotoluron solo 250 gai/ha) does the source give for `Cc1ccc(NC(=O)N(C)C)cc1Cl` [chlorotoluron] here?
A: The pest or weed control at 250 g/ha was 0%.

Q: And the pest or weed control at 500 g/ha (Lolium multiflorum; chlorotoluron solo 500 gai/ha)?
A: Its pest or weed control at 500 g/ha is 10%.

Q: What about the “% activity” value (Poa annua; chlorotoluron solo 125 gai/ha) of the same compound?
A: The value was 0%.

Q: What about the “% activity” value (Poa annua; chlorotoluron solo 250 gai/ha) of the same compound?
A: Its value is 20%.

Q: And the pest or weed control at 500 g/ha (Brachiaria decumbens; chlorotoluron solo 500 gai/ha)?
A: The pest or weed control at 500 g/ha was 0%.

Q: What about the pest or weed control at 125 g/ha (Digitaria sanguinalis; chlorotoluron solo 125 gai/ha) of the same compound?
A: Its pest or weed control at 125 g/ha is 0%.

Q: What about the pest or weed control at 500 g/ha (Digitaria sanguinalis; chlorotoluron solo 500 gai/ha) of the same compound?
A: The pest or weed control at 500 g/ha was 65%.

Q: Which results are given for `CC(C)N(C(=O)COc1nnc(C(F)(F)F)s1)c1ccc(F)cc1` [flufenacet]?
A: % herbicidal activity (weed control, 0-100 scale) at 15.6 g/ha (Galium aparine; flufenacet SC 500 g/l solo 15.6 gai/ha): 0%; % herbicidal activity (weed control, 0-100 scale) at 31.25 g/ha (Galium aparine; flufenacet SC 500 g/l solo 31.25 gai/ha): 0%; % herbicidal activity (weed control, 0-100 scale) at 62.5 g/ha (Galium aparine; flufenacet SC 500 g/l solo 62.5 gai/ha, read-out: % activity): 0%; % herbicidal activity (weed control, 0-100 scale) at 125 g/ha (Galium aparine; flufenacet SC 500 g/l solo 125 gai/ha, read-out: % activity): 40%; inhibition at 62.5 g/ha (Polygonum aviculare; flufenacet solo 62.5 gai/ha, read-out: % activity): 0%; inhibition at 125 g/ha (Polygonum aviculare; flufenacet solo 125 gai/ha, read-out: % activity): 0%; inhibition at 250 g/ha (Polygonum aviculare; flufenacet solo 250 gai/ha): 0%; inhibition at 500000 µg/mL (stock) (Polygonum aviculare; POLAV, solo flufenacet (SC 500 g/l) 250 gai/ha): 0%

Q: Which results are given for `CSc1nnc(C(C)(C)C)c(=O)n1N` [metribuzin]?
A: % herbicidal activity (weed control, 0-100 scale) at 250 g/ha (Galium aparine; metribuzin WG 70% solo 250 gai/ha): 0%; pest or weed control at 250 g/ha (Galium aparine; solo, WG 70%, 250 gai/ha): 0%; inhibition at 35 g/ha (Stellaria media; 480 h, 20 DAT, STEME, metribuzin WG 70% solo 35 gai/ha): 80%; pest or weed control at 62.5 g/ha (Brachiaria decumbens; solo, WG 70%, 62.5 gai/ha): 0%; pest or weed control at 31.25 g/ha (Digitaria sanguinalis; solo, WG 70%, 31.25 gai/ha): 40%; % activity (Setaria viridis; solo, WG 70%, 31.25 gai/ha): 0%

Q: For `CCCCCCCCSC(=O)Oc1cc(Cl)nnc1-c1ccccc1` [pyridate], which inhibition at 112.5 g/ha (Stellaria media; 480 h, pyridate solo 112.5 gai/ha, 20 DAT, STEME) is on record?
A: The inhibition at 112.5 g/ha was 25%.

Q: What about the inhibition at 450 g/ha (Stellaria media; 480 h, pyridate solo 450 gai/ha, 20 DAT, STEME) of the same compound?
A: The inhibition at 450 g/ha was 55%.

Q: And the inhibition at 900 g/ha (Stellaria media; 480 h, pyridate solo 900 gai/ha, 20 DAT, STEME)?
A: The inhibition at 900 g/ha was 70%.

Q: What about the inhibition at 112.5 g/ha (Polygonum aviculare; pyridate solo 112.5 gai/ha, POLAV) of the same compound?
A: The inhibition at 112.5 g/ha was 0%.

Q: And the inhibition at 225 g/ha (Polygonum aviculare; pyridate solo 225 gai/ha, POLAV)?
A: Its inhibition at 225 g/ha is 20%.

Q: What about the inhibition at 450 g/ha (Polygonum aviculare; pyridate solo 450 gai/ha, POLAV) of the same compound?
A: Its inhibition at 450 g/ha is 20%.

Q: And the inhibition at 900 g/ha (Polygonum aviculare; pyridate solo 900 gai/ha, POLAV)?
A: Its inhibition at 900 g/ha is 30%.
